# Measured values as given in patent US20180314077A1, “DRUG SUSTAINED-RELEASING MEDICAL CONTACT LENS” (NOF CORPORATION, priority 2015, published 2018).
# Where a name gives a salt, the structure may show the parent alone.
# Details: not given
# From the text: The solubility of the drug (Q) to be used in the drug sustained-releasing medical contact lens of the present invention in water may be calculated by using the following equation.
row,Molecule,Solubility in water
1,cyanocobalamin,2.15%
2,CN1CCC(=C2c3ccccc3CC(=O)c3sccc32)CC1 [ketotifen fumarate],0.55%
3,COc1c(N2CCNC(C)C2)c(F)cc2c(=O)c(C(=O)O)cn(C3CC3)c12 (centres unmarked) [gatifloxacin],0.55%
4,CCn1cc(C(=O)O)c(=O)c2cc(F)c(N3CCNC(C)C3)c(F)c21 (centres unmarked) [lomefloxacin hydrochloride],0.55%
5,COc1ccc(/C=C/C(=O)Nc2ccccc2C(=O)O)cc1OC [tranilast],0.01%
6,O=C(O)Cc1ccccc1Nc1c(Cl)cccc1Cl [diclofenac sodium],0.24%
7,CC(=O)[C@@]1(O)CC[C@H]2[C@@H]3C[C@H](C)C4=CC(=O)C=C[C@]4(C)[C@@]3(F)[C@@H](O)C[C@@]21C [fluorometholone],0.003%
8,NC(=O)Cc1cccc(C(=O)c2ccccc2)c1N [nepafenac],0.01%
9,CO/N=C(\C(=O)N[C@@H]1C(=O)N2C(C(=O)O)=C(CSc3nnnn3C)CS[C@H]12)c1csc(N)n1 [cefmenoxime],0.055%
10,CCCC(=O)N1CCCN(c2nc(N)c3cc(OC)c(OC)cc3n2)CC1 [bunazosin hydrochloride],0.55%
11,sodium azulene sulfonate hydrate,2.15%
12,CCCCCCCC(=O)CC[C@@H]1[C@@H](C/C=C\CCCC(=O)OC(C)C)[C@@H](O)C[C@H]1O [isopropyl unoprostone],0.01%
13,O=C(O)c1cc(O)c2c3nc4ccccc4oc-3cc(=O)c2n1 [pirenoxine],0.01%
14,COc1ccc2c(c1)c(CC(=O)O)c(C)n2C(=O)c1ccc(Cl)cc1 [indomethacin],0.00009%
15,CCNC(=O)CCC/C=C\C[C@@H]1[C@@H](/C=C/[C@@H](O)CCc2ccccc2)[C@H](O)C[C@@H]1O [bimatoprost],0.55%
16,C[C@@H]1C[C@H]2[C@@H]3CCC4=CC(=O)C=C[C@]4(C)[C@@]3(F)[C@@H](O)C[C@]2(C)[C@@]1(O)C(=O)COC(=O)c1cccc(S(=O)(=O)[O-])c1.[Na+] [dexamethasone sodium sulfobenzoate],0.55%
17,CCN[C@H]1CN(CCCOC)S(=O)(=O)c2sc(S(N)(=O)=O)cc21 [brinzolamide],0.055%
18,CC(C)OC(=O)CCC/C=C\C[C@@H]1[C@@H](/C=C/[C@@H](O)COc2cccc(C(F)(F)F)c2)[C@H](O)C[C@@H]1O [travoprost],0.01%
19,CC(C(=O)O)c1ccc2c(c1)Cc1cccnc1O2 (centres unmarked) [pranoprofen],0.01%
20,Nc1nc2c(ncn2COCCO)c(=O)[nH]1 [acyclovir],0.16%

# Results, then the molecule that gave them:
row,Solubility in water,Molecule
1,2.15%,CN(C)CC/C=C1/c2ccccc2COc2ccc(CC(=O)O)cc21 [olopatadine hydrochloride]
2,0.01%,CC(C)OC(=O)CCC/C=C\C[C@@H]1[C@@H](/C=C/C(F)(F)COc2ccccc2)[C@H](O)C[C@@H]1O [tafluprost]
3,0.0014%,CC(=O)OCC(=O)[C@@]1(O)CC[C@H]2[C@@H]3CCC4=CC(=O)CC[C@]4(C)[C@H]3[C@@H](O)C[C@@]21C [hydrocortisone acetate]
4,0.01%,O=C(NC(Cc1cc(=O)[nH]c2ccccc12)C(=O)O)c1ccc(Cl)cc1 (centres unmarked) [rebamipide]
5,0.01%,NC1CCN(c2nc3c(cc2F)c(=O)c(C(=O)O)cn3-c2ccc(F)cc2F)C1 (centres unmarked) [tosufloxacin tosilate hydrate]
6,2.15%,sodium hyaluronate
7,0.55%,O=C(O)C(=O)Nc1cccc(-c2nnn[nH]2)c1 [acitazanolast hydrate]
8,0.01%,C[C@@H]1C[C@H]2[C@@H]3CCC4=CC(=O)C=C[C@]4(C)[C@@]3(F)[C@@H](O)C[C@]2(C)[C@@]1(O)C(=O)CO [dexamethasone]
9,0.01%,C[C@@H]1CN([C@H]2CC[C@](C#N)(c3ccc(F)cc3)CC2)CC[C@]1(C(=O)O)c1ccccc1 [levocabastine hydrochloride]
10,0.01%,CC(C)OC(=O)CCC/C=C\C[C@@H]1[C@@H](CC[C@@H](O)CCc2ccccc2)[C@H](O)C[C@@H]1O [latanoprost]
11,0.01%,CCn1cc(C(=O)O)c(=O)c2cc(F)c(N3CCNCC3)cc21 [norfloxacin]

# Same assay, conditions: water at 25° C.; 0.01 g of drug / mass of water needed for dissolving x100
row,Molecule,Solubility in water
1,CC(C)c1ccc2oc3nc(N)c(C(=O)O)cc3c(=O)c2c1 [amlexanox],0.01%
